From patent publication US7769423B2 (Duke University, priority 2002, dated 2010)

Legend:
[1] = cited from earlier work
[2] = tested on: fibrosarcomas implanted in the flank of Fisher 344 rats; assay: In vivo MRI signal enhancement and signal intensity ratio (SIR) in rats bearing flank fibrosarcomas, catheter hyperthermia
Method: Fibrosarcocomas were transplanted in the flank of fisher 344 rats and allowed to grow to 17-19 mm in diameter. Rats were anesthetized with pentobarbital (source/amount) and a 16 gauge catheter was placed through the center of the tumor. Heated water (56° C., 1.8 ml/s) was passed through the catheter to provided hyperthermia. During MRI scans, the heating water was doped with 0.25 M MnSO4 to prevent flow image artifacts. Gradient recalled echo was used with a Tr of 23 ms, Te of 1.4 ms, and flip angles of 5, 15, 30, 40, 50, 60 degrees for the initial T1 weighted image. Subsequent drug uptake scans were performed at a flip angle of 33°. 3D volume images, 12 slices 1 mm thick, were taken with a field of view of 6 cm with a pixel size of 234×234 μm. Four and signal image averaging was used for liposome and Gd-DTPA experiments yielding scan times of 1 min, 45 sec and 30 sec respectively.
1NEX image averaging was used for the first twenty minutes of liposome or Gd uptake. Subsequent images were taken at 4NEX for the remainder of the experiment (90-120 minutes).
The liposome formulations were studied in fibrosarcomas implanted in the flank of Fisher 344 rats. The center of the tumor was heated using a catheter through which hot was water circulated. […] Liposomes were then administered intravenously, followed by MR imaging.
In vivo drug relative concentrations were performed by signal intensity image analysis over regions of interest (ROI) within heated tumors. The white boxes present in FIGS. 2A, 2B and 2C indicate these ROIs. […] Muscle in the non-tumor bearing leg of the animal was used as a non-heated, normal tissue control.

[3] = at physiological temperatures; Unger 1993; cited from earlier work
[4] = In vitro MRI T1 relaxivity measurements as a function of temperature and concentration; type: physicochemical; settings: linear regression, in vitro samples, 2-T magnet
Method: Three control stock solutions of manganese sulfate (MnSO4.H2O), free DOX and MnSO4.H2O in a molar ratio of 0.902:1 (DOX:Mn), and MnSO4.H2O with thermally sensitive liposomes that were formed without the presence of MnSO4.H2O. These solutions, along with liposome solutions, were then diluted to concentrations from 0.25-8 mM. The solutions were placed in […] NMR tubes cut to a three-inch length.
All MRI experiments were performed at the Center for In vivo Microscopy at Duke University in a 2-T 30-cm bore diameter magnet (Signa, G.E. Medical Systems, Milwaukee, Wis.). […] Each experiment had six to eight sample tubes, which were contained within an exposed sample holder, and placed inside a 3.81 cm birdcage coil providing RF excitation. […]
Images that were obtained were analyzed by selecting a region of interest and measuring average intensity for each sample dilution. […]
To quantify the concentration of drug in vivo using MRI, in vitro experiments were performed to determine the concentration- and temperature-dependence of T1 shortening. These experiments measured signal intensity resulting from proton spin realignment to the bulk magnetic field after excitation from repetitive radio frequency pulses. […] MnSO4 liposome-DOX formulation measured over a range of drug concentrations (T=29.9° C.). […]

[5] = tested on: fibrosarcoma (FSA-1); assay: Antitumor effect: time for tumors to reach five times the volume on the day of treatment; type: in vivo, rat
Method: Tumor model. […] The fibrosarcoma was transplanted subcutaneously in the flanks of 8-week-old female Fischer 344 rats (Charles River Laboratories, Wilmington, Mass., U.S.A.) under anesthesia using intraperitoneal ketamine (9 mg/kg body weight) and xylazine (10 mg/kg body weight). Tumors were allowed to grow for approximately 2 weeks to a diameter of 10-12 mm before treatment.
Each group of rats (except the control group) received an equivalent dose of 5 mg doxorubicin/kg body weight by intravenous injection and/or 1 hour of hyperthermia. Local hyperthermia was delivered by means of an 18-gauge catheter that was placed through the center of the tumor and through which heated water (˜50° C., 1.8 mL/s) was passed.
The remaining 6-7 rats in each treatment group were included in the survival analysis. […] Final images were taken after tumors cooled to room temperature. […] After therapy, the rats were monitored as they recovered from anesthesia. Tumor volumes were measured three times per week for 60 days or until the tumor volume reached five times the volume on the day of treatment. At these endpoints, the rats were killed by carbon dioxide asphyxiation. […] The five-times-the-initial-volume cutpoint was chosen based on guidelines from the institutional animal care and use committee. No rats were killed before the specified endpoints were reached.
Descriptive summary statistics are expressed as mean values with 95% confidence intervals, except for the time-to-five-times-tumor-volume data, which are expressed as median values with 95% confidence intervals. To avoid assuming a normal distribution, nonparametric or semi-parametric statistical methods were used. Group comparisons were conducted with the Kruskal-Wallis test for more than two groups and the Wilcoxon test for between-group differences. For the antitumor efficacy data, the primary endpoint (time to reach five times the original tumor volume) was analyzed by the Kaplan-Meier product-limit method, using the Wilcoxon rank test for between-group differences. […]

## O=C([O-])CN(CCN(CC(=O)[O-])CC(=O)[O-])CCN(CC(=O)[O-])CC(=O)[O-].[Gd+3] [Gd-DTPA]
[1]; in about 6 hours
  fraction excreted in urine: 83%±14%
[1]; in vivo
  mean elimination half-life: about 0.2±0.13 hours
[2]; enhanced tumor region
  time to reach SIR plateau in tumor-enhancing region: ≤ 10 min
[2]; femoral vein, normalized to non-heated muscle
  femoral vessel SIR value reached: 2.0
[2]; femoral vein, post injection
  time at which femoral vessel SIR value was reached: 10 min
[2]; without hyperthermia (HT)
  MR signal enhancement pattern: Enhancement occurs in all tissues with a high degree of non-uniformity in the tumor
[3]
  relaxivity: approximately 44.5 (mM·sec·° C.)^−1

## O=S(=O)([O-])[O-].[Mn+2] [MnSO4, manganese sulfate]
[4]
  intercept of relaxivity as a function of temperature (intercept±S.E.): 7.28 ± 0.12 mM/s
  slope of relaxivity as a function of temperature (slope±S.E.): −0.082±0.003 (mM·sec·° C.)^−1

## COc1cccc2c1C(=O)c1c(O)c3c(c(O)c1C2=O)C[C@@](O)(C(=O)CO)C[C@@H]3O[C@H]1C[C@H](N)[C@H](O)[C@H](C)O1 [free doxorubicin, doxorubicin]
[5]; alone, without hyperthermia
  tumor growth time / growth delay: statistically significantly longer tumor growth times than the saline control
[5]; during / plus hyperthermia
  complete tumor regression upon censoring at 60 days: one of the six rats
[5]; with hyperthermia
  tumor growth time / growth delay: statistically significantly longer tumor growth times than the saline control
